Data on 26 compounds can be found in patent US9540323B2 (BRISTOL-MYERS SQUIBB COMPANY, priority 2012, dated 2017).

Experiment [1] has as its target cloned human P2Y1 receptors (Homo sapiens (Human), UniProt P47900). Put plainly: Binding Assay B - Scintillation Proximity Assay (SPA) for P2Y1 binding, [33P] 2MeS-ADP. Particulars: SPA, 0.3 nM [33P] 2MeS-ADP, Cheng-Prusoff; read-out: P2Y1 Ki (nM) using binding assay B. As to the method:
Binding Assay B—Scintillation Proximity Assay (SPA) for P2Y1 Binding
A SPA membrane binding assay was used to identify inhibitors of [^33P] […] Reactions were allowed to proceed to completion at room temperature for 1 hour followed by centrifugation of the plate for 5 min. About 40 μL of the aqueous solution was aspirated. Plates were sealed and the [^33P]

Experiment [2] deals with human platelet rich plasma (PRP). Put plainly: ADP induced platelet aggregation assay. Conditions: Homo sapiens, Platelet, 5 min, read-out: PA IC50 (μM) @ 10 μM ADP, human PRP, 10 μM ADP, AUC at 5 minute.

Sequence of cloned human P2Y1 receptors (P47900 whole entry): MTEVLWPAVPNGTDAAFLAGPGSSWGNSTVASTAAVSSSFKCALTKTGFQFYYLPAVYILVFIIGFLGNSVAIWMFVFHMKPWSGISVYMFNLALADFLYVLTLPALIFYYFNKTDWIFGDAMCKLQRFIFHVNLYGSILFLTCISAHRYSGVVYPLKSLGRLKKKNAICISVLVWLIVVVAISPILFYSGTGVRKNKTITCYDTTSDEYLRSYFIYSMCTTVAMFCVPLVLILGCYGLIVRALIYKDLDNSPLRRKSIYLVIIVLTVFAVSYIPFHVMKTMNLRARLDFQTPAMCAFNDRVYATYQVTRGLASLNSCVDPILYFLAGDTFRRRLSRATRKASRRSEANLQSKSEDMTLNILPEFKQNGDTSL

As usually defined, the Ki is a measure of affinity in units of concentration, obtained from inhibition or displacement. As usually defined, the IC50 is the concentration needed to halve the response being measured. On to `CC1(C)CN(c2ccccc2NC(=O)Nc2ccc(OC(F)(F)F)cc2)c2c(O)ccc(-c3ccc(F)cc3F)c21` [Example 203, 1-(2-(4-(2,4-Difluorophenyl)-7-hydroxy-3,3-dimethylindolin-1-yl)phenyl)-3-(4-(trifluoromethoxy)phenyl)urea], for which the inhibitory constant (Ki) in experiment [1] came out at 8 nM. In experiment [2], the concentration for half-maximal inhibition (IC50) amounted to 0.16 µM.

For `CC1(C)CN(c2ccccc2NC(=O)Nc2nc3ccc(Cl)cc3s2)c2c(O)ccc(-c3ccc(F)cc3)c21` [Example 199, 1-(6-Chlorobenzo[d]thiazol-2-yl)-3-(2-(4-(4-fluorophenyl)-7-hydroxy-3,3-dimethylindolin-1-yl)phenyl)urea], the Ki in experiment [1] worked out at 10.1 nM. For the same compound, in experiment [2], the concentration for half-maximal inhibition (IC50) came to 0.18 µM.

`CC1(C)CN(c2ccccc2NC(=O)Nc2nc3ccc(F)cc3s2)c2c(O)ccc(C(F)(F)F)c21` [Example 18, 1-(6-Fluorobenzo[d]thiazol-2-yl)-3-(2-(7-hydroxy-3,3-dimethyl-4-(trifluoromethyl)indolin-1-yl)phenyl)urea]: the inhibition constant Ki in experiment [1] was determined as 12.4 nM. Moreover, the half-maximal inhibitory concentration (IC50) in experiment [2] turned out to be 0.17 µM.

`CCC1(CC)CN(c2ccccc2NC(=O)Nc2ccc(C3CCN(CC(C)(C)C)CC3)cc2)c2c1ccc(F)c2O` [Example 37, 1-(2-(3,3-Diethyl-6-fluoro-7-hydroxyindolin-1-yl)phenyl)-3-(4-(1-neopentylpiperidin-4-yl)phenyl)urea]: the Ki in experiment [1] is 8.7 nM. Further, the IC50 in experiment [2] is 0.89 µM.

For `CC1(C)CN(c2ccccc2NC(=O)Nc2ccc(OC(F)(F)F)cc2)c2c(O)ccc(-c3ccncc3)c21` [Example 113, 1-(2-(7-Hydroxy-3,3-dimethyl-4-(pyridin-4-yl)indolin-1-yl)phenyl)-3-(4-(trifluoromethoxy)phenyl)urea], the Ki in experiment [1] turned out to be 5.9 nM. The concentration for half-maximal inhibition (IC50) in experiment [2] stood at 0.35 µM.

As to `CC(C)CN1CCCC1c1ccc(NC(=O)Nc2ccccc2N2CC(C)(C)c3c(F)ccc(O)c32)cc1` (stereo not shown) [Example 34, 1-(2-(4-Fluoro-7-hydroxy-3,3-dimethylindolin-1-yl)phenyl)-3-(4-(1-isobutylpyrrolidin-2-yl)phenyl)urea], the Ki in experiment [1] was 9.8 nM. The half-inhibitory concentration (IC50) in experiment [2] is 1.07 µM.

For the compound `Cc1noc(-c2ccc(O)c3c2C(C)(C)CN3c2ccccc2NC(=O)Nc2ccc(OC(F)(F)F)cc2)n1` [Example 97, 1-(2-(7-Hydroxy-3,3-dimethyl-4-(3-methyl-1,2,4-oxadiazol-5-yl)indolin-1-yl)phenyl)-3-(4-(trifluoromethoxy)phenyl)urea], in experiment [1], the Ki came out at 20.7 nM. Also, the IC50 in experiment [2] turned out to be 1.52 µM.

With `CC1(C)CN(c2ccccc2NC(=O)Nc2nc3ccc(F)cc3s2)c2c(O)ccc(-c3nc4cc(Cl)ccc4s3)c21` [Example 100, 1-(2-(4-(5-Chlorobenzo[d]thiazol-2-yl)-7-hydroxy-3,3-dimethylindolin-1-yl)phenyl)-3-(6-fluorobenzo[d]thiazol-2-yl)urea], in experiment [1], the Ki stood at 38.4 nM. For the same compound, the concentration for half-maximal inhibition (IC50) in experiment [2] was 0.27 µM.

Regarding `CC1(C)CN(c2ccccc2NC(=O)Nc2ccc(OC(F)(F)F)cc2)c2c(O)cc(F)c(-c3nc4cc(F)ccc4s3)c21` [Example 151, 1-(2-(5-Fluoro-4-(5-fluorobenzo[d]thiazol-2-yl)-7-hydroxy-3,3-dimethylindolin-1-yl)phenyl)-3-(4-(trifluoromethoxy)phenyl)urea], the Ki in experiment [1] was found to be 24.1 nM. Further, the IC50 in experiment [2] worked out at 0.48 µM.

Turning to `CC1(C)CN(c2ccccc2NC(=O)Nc2ccc(OC(F)(F)F)cc2)c2c(O)ccc(-c3cncc(F)c3)c21` [Example 117, 1-(2-(4-(5-Fluoropyridin-3-yl)-7-hydroxy-3,3-dimethylindolin-1-yl)phenyl)-3-(4-(trifluoromethoxy)phenyl) urea], in experiment [1], the inhibition constant Ki worked out at 36 nM. Further, the 50% inhibitory concentration (IC50) in experiment [2] was 0.51 µM.

As for `CC1(C)CN(c2ccccc2NC(=O)Nc2ccc(OC(F)(F)F)cc2)c2c(O)cc(F)c(-c3ccc(Cl)cn3)c21` [Example 162, 1-(2-(4-(5-Chloropyridin-2-yl)-5-fluoro-7-hydroxy-3,3-dimethylindolin-1-yl)phenyl)-3-(4-(trifluoromethoxy)phenyl)urea], in experiment [1], the inhibition constant Ki was 6.4 nM. In addition, the IC50 in experiment [2] came out at 0.25 µM.

For the compound `CC(C)(C)Sc1ccc(O)c2c1C(C)(C)CN2c1ccccc1NC(=O)Nc1ccc(OC(F)(F)F)cc1` [Example 72, 1-(2-(4-(tert-Butylthio)-7-hydroxy-3,3-dimethylindolin-1-yl)phenyl)-3-(4-(trifluoromethoxy)phenyl)urea], the inhibition constant Ki in experiment [1] amounted to 32.2 nM. Besides, the IC50 in experiment [2] came to 1.05 µM.

`Cc1ccnc2oc(-c3ccc(O)c4c3C(C)(C)CN4c3ccccc3NC(=O)Nc3ccc(OC(F)(F)F)cc3)nc12` [Example 103, 1-(2-(7-Hydroxy-3,3-dimethyl-4-(7-methyloxazolo[5,4-b]pyridin-2-yl)indolin-1-yl)phenyl)-3-(4-(trifluoromethoxy)phenyl)urea]: the Ki in experiment [1] worked out at 11.1 nM. In experiment [2], the IC50 worked out at 1.03 µM.

As to `CCC1(CC)CN(c2ccccc2NC(=O)Nc2csc(Cl)n2)c2c(O)ccc(Cl)c21` [Example 53, 1-(2-(4-Chloro-3,3-diethyl-7-hydroxyindolin-1-yl)phenyl)-3-(2-chlorothiazol-4-yl)urea], the Ki in experiment [1] is 5 nM. The IC50 in experiment [2] was 0.28 µM.

For `CC(C)CN1CCCC1c1ccc(NC(=O)Nc2ccccc2N2CC(C)(C)c3c(-c4ccc(F)cc4)ccc(O)c32)cc1` (stereo not shown) [Example 200, 1-(2-(4-(4-Fluorophenyl)-7-hydroxy-3,3-dimethylindolin-1-yl)phenyl)-3-(4-(1-isobutylpyrrolidin-2-yl)phenyl)urea], in experiment [1], the inhibition constant Ki was 4.6 nM. Further, the 50% inhibitory concentration (IC50) in experiment [2] was determined as 0.05 µM.

Take `CC1(C)CN(c2ccccc2NC(=O)Nc2nc3ccc(F)cc3s2)c2c(O)cc(F)c(-c3nc4cc(F)ccc4s3)c21` [Example 152, 1-(2-(5-Fluoro-4-(5-fluorobenzo[d]thiazol-2-yl)-7-hydroxy-3,3-dimethylindolin-1-yl)phenyl)-3-(6-fluorobenzo[d]thiazol-2-yl)urea]: the inhibition constant (Ki) in experiment [1] is 25.4 nM. Further, the half-inhibitory concentration (IC50) in experiment [2] came to 0.3 µM.

For `CC1(C)CN(c2ccccc2NC(=O)Nc2ccc(OC(F)(F)F)cc2)c2c(O)ccc(-c3ccc(C(F)(F)F)cc3)c21` [Example 196, 1-(2-(7-Hydroxy-3,3-dimethyl 4-(4-(trifluoromethyl)phenyl)indolin-1-yl)phenyl)-3-(4-(trifluoromethoxy)phenyl)urea], in experiment [1], the inhibitory constant (Ki) was 8 nM. In addition, in experiment [2], the IC50 was 0.23 µM.

With `C=C(C)c1ccc(-c2c(F)cc(O)c3c2C(C)(C)CN3c2ccccc2NC(=O)Nc2ccc(OC(F)(F)F)cc2)cc1` [Example 250, 1-(2-(5-Fluoro-7-hydroxy-3,3-dimethyl-4-(4-(prop-1-en-2-yl)phenyl)indolin-1-yl)phenyl)-3-(4-(trifluoromethoxy)phenyl)urea], in experiment [1], the Ki amounted to 29.5 nM. Moreover, the IC50 in experiment [2] turned out to be 0.22 µM.

On to `CC(C)n1nc(C(F)(F)F)cc1-c1c(F)cc(O)c2c1C(C)(C)CN2c1ccccc1NC(=O)Nc1nc2ccc(F)cc2s1` [Example 267, 1-(2-(5-Fluoro-7-hydroxy-4-(1-isopropyl-3-(trifluoromethyl)-1H-pyrazol-5-yl)-3,3-dimethylindolin-1-yl)phenyl)-3-(6-fluorobenzo[d]thiazol-2-yl)urea], for which, in experiment [1], the Ki came out at 16.4 nM. Further, the IC50 in experiment [2] worked out at 0.51 µM.

`CC1(C)CN(c2ccccc2NC(=O)Nc2ccc(OC(F)(F)F)cc2)c2c(O)ccc(-c3nc4cc(F)c(F)cc4o3)c21` [Example 99, 1-(2-(4-(5,6-Difluorobenzo[d]oxazol-2-yl)-7-hydroxy-3,3-dimethylindolin-1-yl)phenyl)-3-(4-(trifluoromethoxy)phenyl)urea]: the Ki in experiment [1] turned out to be 28.1 nM. Besides, in experiment [2], the half-maximal inhibitory concentration (IC50) amounted to 0.89 µM.

Consider `CC(C)n1nc(-c2c(F)cc(O)c3c2C(C)(C)CN3c2ccccc2NC(=O)Nc2csc(Cl)n2)cc1C(F)(F)F` [Example 273, 1-(2-Chlorothiazol-4-yl)-3-(2-(5-fluoro-7-hydroxy-4-(1-isopropyl-5-(trifluoromethyl)-1H-pyrazol-3-yl)-3,3-dimethylindolin-1-yl)phenyl)urea], for which, in experiment [1], the Ki came to 9.4 nM. The IC50 in experiment [2] worked out at 0.05 µM.

Regarding `CC1(C)CN(c2ccccc2NC(=O)Nc2ccc(OC(F)(F)F)cc2)c2c(O)cc(F)c(-c3nc4ccc(Cl)cc4s3)c21` [Example 148, 1-(2-(4-(6-Chlorobenzo[d]thiazol-2-yl)-5-fluoro-7-hydroxy-3,3-dimethylindolin-1-yl)phenyl)-3-(4-(trifluoromethoxy)phenyl)urea], the Ki in experiment [1] came to 83 nM. Besides, in experiment [2], the half-inhibitory concentration (IC50) worked out at 0.68 µM.

As to `CC1(C)CN(c2ccccc2NC(=O)Nc2ccc(OC(F)(F)F)cc2)c2c(O)ccc(-c3ccnc(F)c3)c21` [Example 112, 1-(2-(4-(2-Fluoropyridin-4-yl)-7-hydroxy-3,3-dimethylindolin-1-yl)phenyl)-3-(4-(trifluoromethoxy)phenyl) urea], in experiment [1], the Ki came to 9 nM. Moreover, the 50% inhibitory concentration (IC50) in experiment [2] came out at 0.43 µM.

On to `CCC1(CC)CN(c2ccccc2NC(=O)Nc2ccc(OC(F)(F)F)cc2)c2c(O)ccc(Br)c21` [Example 39, 1-(2-(3,3-Diethyl-4-bromo-7-hydroxyindolin-1-yl)phenyl)-3-(4-(trifluoromethoxy)phenyl)urea], for which the inhibitory constant (Ki) in experiment [1] turned out to be 18.8 nM. The half-maximal inhibitory concentration (IC50) in experiment [2] was determined as 0.51 µM.

As for `CCC1(CC)CN(c2ccccc2NC(=O)Nc2ccc(C3CCCN3CC(C)(C)C)cc2)c2c(O)ccc(F)c21` (stereo not shown) [Example 29, 1-(2-(3,3-Diethyl-4-fluoro-7-hydroxyindolin-1-yl)phenyl)-3-(4-(1-neopentylpyrrolidin-2-yl)phenyl)urea], in experiment [1], the inhibitory constant (Ki) came to 3.6 nM. Also, the 50% inhibitory concentration (IC50) in experiment [2] was determined as 0.3 µM.

`CC1(C)CN(c2ccccc2NC(=O)Nc2nc3ccc(F)cc3s2)c2c(O)cc(F)c(-c3ccc(C(F)(F)F)cn3)c21` [Example 168, 1-(2-(5-Fluoro-7-hydroxy-3,3-dimethyl-4-(5-(trifluoromethyl)pyridin-2-yl)indolin-1-yl)phenyl)-3-(6-fluorobenzo[d]thiazol-2-yl)urea]: the inhibition constant (Ki) in experiment [1] is 29.4 nM. Further, the IC50 in experiment [2] came out at 0.45 µM.
